Reference: patent US20100130509A1, “NOVEL ANTIBIOTICS” (Nederlandse Organisatie voor toegepast-natuurwe- …, priority 2007, published 2010)
≈ marks a conversion by molar mass, not a printed value. Like-named read-outs stand apart in the source and are kept apart here.

Legend:
[1] = system: Staphylococcus aureus; test: Antibiotic activity towards Staphylococcus aureus (summary statements); assay type: cell-based; details: statement in words
[2] = system: S. aureus strain ATCC 6538; test: MIC test (CLSI M7-A6 dilution), S. aureus ATCC 6538; assay type: cell-based, Staphylococcus aureus; details: for MIC: Staphylococcus aureus
[3] = system: S. aureus TTC 03.0239; test: MIC test (CLSI M7-A6 dilution), S. aureus TTC 03.0239; assay type: cell-based; details: Staphylococcus aureus, TTC03.0239; single strain; TTC is internal collection number
Procedure: (§1) MIC test were performed according to standard methodology: M7-A6-“Methods for Dilution Antimicrobial Susceptibility Tests for Bacteria That Grow Aerobically”; Approved Standard, Sixth Edition Clinical and Laboratory Standards Institute 2005 (CLSI/formerly NCCLS).

[4] = system: S. aureus TTC 03.0236; test: MIC test (CLSI M7-A6 dilution), S. aureus TTC 03.0236; assay type: cell-based; details: Staphylococcus aureus, TTC03.0236; single strain; TTC is internal collection number
Procedure: as §1

[5] = system: S. epidermis; test: MIC test (CLSI M7-A6 dilution), S. epidermis; assay type: cell-based; details: single strain
Procedure: as §1

[6] = ATCC6538, single strain, Table I, read-out: MIC S. aureus ATTC 6538
[7] = ATCC6538, Table II, Example 3, read-out: MIC S. aureus ATCC 6538

| SMILES | antibiotic activity towards Staphylococcus aureus [1] | efficacy as antimicrobial agents [1] | MIC [2, 7] | MIC S. aureus ATCC 6538 ([2]; Table II, Example 3) | further results |
| --- | --- | --- | --- | --- | --- |
| O=C(Nc1ccccc1)C(Cl)(Cl)c1nnnn1-c1ccccc1 [NewCo0052, N1-phenyl-2,2-dichloro-2-(1-phenyl-1H-1,2,3,4-tetraazol-5-yl)acetamide] | most notable | exceptionally good |  |  | MIC [2, 6]: 1.56 µg/mL (≈ 4.48 µM); MIC [3]: 1.56 µg/mL (≈ 4.48 µM); MIC [4]: 1.56 µg/mL (≈ 4.48 µM); MIC [5]: 0.78 µg/mL (≈ 2.24 µM) |
| COc1ccccc1NC(=O)C(Cl)(Cl)c1nnnn1-c1ccccc1OC [NewCo0053, N1-(2-methoxyphenyl)-2,2-dichloro-2-[1-(2-methoxyphenyl)-1H-1,2,3,4-tetraazol-5-yl]acetamide] | most notable | exceptionally good |  |  | MIC [2, 6]: 0.78 µg/mL (≈ 1.91 µM); MIC [3]: 1.56 µg/mL (≈ 3.82 µM); MIC [4]: 0.78 µg/mL (≈ 1.91 µM); MIC [5]: 0.78 µg/mL (≈ 1.91 µM) |
| Cc1ccccc1-n1nnnc1C(Cl)(Cl)C(=O)Nc1ccccc1 [NewCo 0058, 2,2-dichloro-N-phenyl-2-(1-o-tolyl-1H-tetrazol-5-yl)-acetamide] | most notable | exceptionally good | 0.39 µg/mL (≈ 1.08 µM) |  |  |
| Cc1ccccc1-n1nnnc1C(Cl)(Cl)C(=O)NC(C)C [NewCo 0059, 2,2-dichloro-N-isopropyl-2-(1-o-tolyl-1H-tetrazol-5-yl)-acetamide] |  |  | 25 µg/mL (≈ 76.2 µM) |  |  |
| Cc1ccccc1-n1nnnc1C(Cl)(Cl)C(=O)N1CCNCC1 [NewCo 0060, 2,2-dichloro-1-piprazin-1-yl-2-(1-o-tolyl-1H-tetrazol-5-yl)-ethanone] |  |  |  | 12.5 µg/mL (≈ 35.2 µM) |  |
| Cc1ccccc1-n1nnnc1C(Cl)(Cl)C(=O)Nc1ccncc1 [NewCo 0061, 2,2-dichloro-N-pyridin-4-yl-2-(1-o-tolyl-1H-tetrazol-5-yl)-acetamide] | most notable | exceptionally good | 0.78 µg/mL (≈ 2.15 µM) |  |  |
| Cc1ccccc1-n1nnnc1C(Cl)(Cl)C(=O)NC1CCNCC1 [NewCo 0062, 2,2-dichloro-N-piperidin-4-yl-2-(1-O— tolyl-1H-tetrazol-5-yl)-acetamide] |  |  |  | 50 µg/mL (≈ 135 µM) |  |
| Cc1ccccc1-n1nnnc1C(Cl)(Cl)C(N)=O [NewCo 0063, 2,2-dichloro-2-(1-o-tolyl-1H-tetrazol-5-yl)-acetamide] | most notable | exceptionally good | 1.56 µg/mL (≈ 5.45 µM) |  |  |
| Cc1ccccc1-n1nnnc1C(Cl)(Cl)C(=O)N(C)C [NewCo 0064, 2-dichloro-N,N-dimethyl-2-(1-o-tolyl-1H-tetrazol-5-yl)-acetamide] |  |  |  | 100 µg/mL (≈ 318 µM) |  |
| CN[C@H](CC(C)C)C(=O)N[C@H]1C(=O)N[C@@H](CC(N)=O)C(=O)N[C@H]2C(=O)N[C@H]3C(=O)N[C@H](C(=O)N[C@H](C(=O)O)c4cc(O)cc(O)c4-c4cc3ccc4O)[C@H](O)c3ccc(c(Cl)c3)Oc3cc2cc(c3O[C@@H]2O[C@H](CO)[C@@H](O)[C@H](O)[C@H]2O[C@H]2C[C@](C)(N)[C@H](O)[C@H](C)O2)Oc2ccc(cc2Cl)[C@H]1O [Vancomycin, reference compound] |  |  |  |  | MIC ([2]; ATCC6538, read-out: MIC S. aureus ATCC 6538): 0.78 µg/mL (≈ 0.538 µM) |
